Assay results taken from US20190330224A1, “ACC INHIBITORS AND USES THEREOF” (Gilead Apollo, LLC, priority 2015, published 2019).
pIC50: −log10 of the molar value. Values after ≈ are worked out from the molar mass of the structure shown.

Experiments:
Human ACC2 = Human ACC2 (Homo sapiens, UniProt O00763); experiment: In vitro ACC2 inhibition assay (ADP-Glo), human ACC2; format: biochemical; conditions: 5 nM ACC2, 20 μM ATP, 20 μM acetyl-CoA
C. krusei ATCC 6258 = experiment: Anti-Fungal Activity Assay (broth microtiter MIC), C. krusei; format: cell-based, Candida krusei; conditions: Pichia kudriavzevii, ATCC6258, 48 h, 3 replicates; MIC recorded at 48 h; read-out: MIC C. krusei ATCC 6258
Outline: (§1)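 Susceptibility testing used direct colony suspensions in RPMI 1640+MOPS from Sabouraud dextrose agar grown at 35° C. Endpoints were visual MICs at 48 h under CLSI M27-A3 microtiter conditions, plus a 24 h reading for soraphen.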

Fungal ACC2 = Fungal ACC2 (UniProt Q00955); conditions: read-out: Fungal ACC2 (IC50, in vitro ACC2 inhibition)
[1] = tested on: C. parapsilosis ATCC 22019; experiment: Anti-Fungal Activity Assay (broth microtiter MIC), C. parapsilosis; format: cell-based, Candida parapsilosis; conditions: Lodderomyces parapsilosis, ATCC22019, 48 h, 3 replicates; MIC recorded at 48 h; read-out: MIC C. parapsilosis ATCC 22019
Outline: as §1

C. albicans ATCC 90028 = experiment: Anti-Fungal Activity Assay (broth microtiter MIC), C. albicans; format: cell-based, Candida albicans; conditions: Candida albicans, ATCC90028, 48 h, 3 replicates; MIC recorded at 48 h; read-out: MIC C. albicans ATCC 90028
Outline: as §1

Chain of Fungal ACC2 (Q00955 whole entry): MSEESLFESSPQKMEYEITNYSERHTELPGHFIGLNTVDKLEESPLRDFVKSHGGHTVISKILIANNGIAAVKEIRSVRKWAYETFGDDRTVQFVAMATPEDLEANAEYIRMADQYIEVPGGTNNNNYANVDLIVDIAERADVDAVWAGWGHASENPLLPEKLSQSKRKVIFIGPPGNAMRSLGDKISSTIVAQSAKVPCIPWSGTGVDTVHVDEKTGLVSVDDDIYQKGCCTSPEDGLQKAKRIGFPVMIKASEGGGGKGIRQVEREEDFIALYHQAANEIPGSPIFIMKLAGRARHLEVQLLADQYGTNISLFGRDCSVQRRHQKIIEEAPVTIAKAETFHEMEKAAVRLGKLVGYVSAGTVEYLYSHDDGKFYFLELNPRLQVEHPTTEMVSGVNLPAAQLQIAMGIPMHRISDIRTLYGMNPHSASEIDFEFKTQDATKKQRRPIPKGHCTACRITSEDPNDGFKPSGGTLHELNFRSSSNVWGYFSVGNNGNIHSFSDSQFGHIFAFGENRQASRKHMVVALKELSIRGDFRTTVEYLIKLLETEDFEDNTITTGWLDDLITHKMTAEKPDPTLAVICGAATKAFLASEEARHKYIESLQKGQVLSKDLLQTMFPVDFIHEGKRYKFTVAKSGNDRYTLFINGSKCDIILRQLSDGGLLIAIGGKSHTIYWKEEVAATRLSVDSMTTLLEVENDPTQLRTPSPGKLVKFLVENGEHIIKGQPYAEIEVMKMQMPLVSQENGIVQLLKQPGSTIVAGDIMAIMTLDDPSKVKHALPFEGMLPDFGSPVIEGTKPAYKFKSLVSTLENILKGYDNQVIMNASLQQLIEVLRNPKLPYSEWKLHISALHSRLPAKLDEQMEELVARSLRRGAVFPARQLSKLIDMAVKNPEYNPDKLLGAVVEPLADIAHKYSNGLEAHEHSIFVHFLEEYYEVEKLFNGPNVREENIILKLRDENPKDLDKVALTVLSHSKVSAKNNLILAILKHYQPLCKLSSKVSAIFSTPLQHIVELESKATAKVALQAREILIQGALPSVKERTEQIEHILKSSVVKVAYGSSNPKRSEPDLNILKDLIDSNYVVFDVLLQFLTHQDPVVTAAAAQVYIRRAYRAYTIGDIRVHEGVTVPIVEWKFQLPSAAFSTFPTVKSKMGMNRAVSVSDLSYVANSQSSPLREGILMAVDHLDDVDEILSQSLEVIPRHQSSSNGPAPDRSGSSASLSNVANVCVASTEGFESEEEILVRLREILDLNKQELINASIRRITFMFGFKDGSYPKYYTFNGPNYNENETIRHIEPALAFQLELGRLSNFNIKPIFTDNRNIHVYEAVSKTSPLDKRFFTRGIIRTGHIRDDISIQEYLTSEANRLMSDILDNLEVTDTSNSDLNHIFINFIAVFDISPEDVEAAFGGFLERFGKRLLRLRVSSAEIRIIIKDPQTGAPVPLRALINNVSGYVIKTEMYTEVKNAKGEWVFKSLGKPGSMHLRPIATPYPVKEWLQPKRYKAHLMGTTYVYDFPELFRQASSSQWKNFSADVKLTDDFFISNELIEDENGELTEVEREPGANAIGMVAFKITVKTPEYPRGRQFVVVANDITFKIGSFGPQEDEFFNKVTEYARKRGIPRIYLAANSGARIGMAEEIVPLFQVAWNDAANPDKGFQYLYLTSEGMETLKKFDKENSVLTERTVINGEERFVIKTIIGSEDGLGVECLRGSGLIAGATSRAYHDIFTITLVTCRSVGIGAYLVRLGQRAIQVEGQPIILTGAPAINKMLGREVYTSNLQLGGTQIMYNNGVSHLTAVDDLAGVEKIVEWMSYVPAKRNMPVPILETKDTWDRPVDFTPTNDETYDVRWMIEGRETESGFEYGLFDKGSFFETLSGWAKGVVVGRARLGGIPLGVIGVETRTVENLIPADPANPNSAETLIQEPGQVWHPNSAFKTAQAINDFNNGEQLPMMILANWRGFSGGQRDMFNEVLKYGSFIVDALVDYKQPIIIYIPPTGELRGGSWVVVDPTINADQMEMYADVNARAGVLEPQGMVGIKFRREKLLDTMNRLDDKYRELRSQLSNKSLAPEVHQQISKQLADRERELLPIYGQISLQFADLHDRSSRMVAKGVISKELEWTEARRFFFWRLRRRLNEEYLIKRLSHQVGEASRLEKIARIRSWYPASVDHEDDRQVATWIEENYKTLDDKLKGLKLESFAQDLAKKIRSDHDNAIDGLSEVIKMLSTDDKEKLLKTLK
Chain of Human ACC2 (O00763 whole entry): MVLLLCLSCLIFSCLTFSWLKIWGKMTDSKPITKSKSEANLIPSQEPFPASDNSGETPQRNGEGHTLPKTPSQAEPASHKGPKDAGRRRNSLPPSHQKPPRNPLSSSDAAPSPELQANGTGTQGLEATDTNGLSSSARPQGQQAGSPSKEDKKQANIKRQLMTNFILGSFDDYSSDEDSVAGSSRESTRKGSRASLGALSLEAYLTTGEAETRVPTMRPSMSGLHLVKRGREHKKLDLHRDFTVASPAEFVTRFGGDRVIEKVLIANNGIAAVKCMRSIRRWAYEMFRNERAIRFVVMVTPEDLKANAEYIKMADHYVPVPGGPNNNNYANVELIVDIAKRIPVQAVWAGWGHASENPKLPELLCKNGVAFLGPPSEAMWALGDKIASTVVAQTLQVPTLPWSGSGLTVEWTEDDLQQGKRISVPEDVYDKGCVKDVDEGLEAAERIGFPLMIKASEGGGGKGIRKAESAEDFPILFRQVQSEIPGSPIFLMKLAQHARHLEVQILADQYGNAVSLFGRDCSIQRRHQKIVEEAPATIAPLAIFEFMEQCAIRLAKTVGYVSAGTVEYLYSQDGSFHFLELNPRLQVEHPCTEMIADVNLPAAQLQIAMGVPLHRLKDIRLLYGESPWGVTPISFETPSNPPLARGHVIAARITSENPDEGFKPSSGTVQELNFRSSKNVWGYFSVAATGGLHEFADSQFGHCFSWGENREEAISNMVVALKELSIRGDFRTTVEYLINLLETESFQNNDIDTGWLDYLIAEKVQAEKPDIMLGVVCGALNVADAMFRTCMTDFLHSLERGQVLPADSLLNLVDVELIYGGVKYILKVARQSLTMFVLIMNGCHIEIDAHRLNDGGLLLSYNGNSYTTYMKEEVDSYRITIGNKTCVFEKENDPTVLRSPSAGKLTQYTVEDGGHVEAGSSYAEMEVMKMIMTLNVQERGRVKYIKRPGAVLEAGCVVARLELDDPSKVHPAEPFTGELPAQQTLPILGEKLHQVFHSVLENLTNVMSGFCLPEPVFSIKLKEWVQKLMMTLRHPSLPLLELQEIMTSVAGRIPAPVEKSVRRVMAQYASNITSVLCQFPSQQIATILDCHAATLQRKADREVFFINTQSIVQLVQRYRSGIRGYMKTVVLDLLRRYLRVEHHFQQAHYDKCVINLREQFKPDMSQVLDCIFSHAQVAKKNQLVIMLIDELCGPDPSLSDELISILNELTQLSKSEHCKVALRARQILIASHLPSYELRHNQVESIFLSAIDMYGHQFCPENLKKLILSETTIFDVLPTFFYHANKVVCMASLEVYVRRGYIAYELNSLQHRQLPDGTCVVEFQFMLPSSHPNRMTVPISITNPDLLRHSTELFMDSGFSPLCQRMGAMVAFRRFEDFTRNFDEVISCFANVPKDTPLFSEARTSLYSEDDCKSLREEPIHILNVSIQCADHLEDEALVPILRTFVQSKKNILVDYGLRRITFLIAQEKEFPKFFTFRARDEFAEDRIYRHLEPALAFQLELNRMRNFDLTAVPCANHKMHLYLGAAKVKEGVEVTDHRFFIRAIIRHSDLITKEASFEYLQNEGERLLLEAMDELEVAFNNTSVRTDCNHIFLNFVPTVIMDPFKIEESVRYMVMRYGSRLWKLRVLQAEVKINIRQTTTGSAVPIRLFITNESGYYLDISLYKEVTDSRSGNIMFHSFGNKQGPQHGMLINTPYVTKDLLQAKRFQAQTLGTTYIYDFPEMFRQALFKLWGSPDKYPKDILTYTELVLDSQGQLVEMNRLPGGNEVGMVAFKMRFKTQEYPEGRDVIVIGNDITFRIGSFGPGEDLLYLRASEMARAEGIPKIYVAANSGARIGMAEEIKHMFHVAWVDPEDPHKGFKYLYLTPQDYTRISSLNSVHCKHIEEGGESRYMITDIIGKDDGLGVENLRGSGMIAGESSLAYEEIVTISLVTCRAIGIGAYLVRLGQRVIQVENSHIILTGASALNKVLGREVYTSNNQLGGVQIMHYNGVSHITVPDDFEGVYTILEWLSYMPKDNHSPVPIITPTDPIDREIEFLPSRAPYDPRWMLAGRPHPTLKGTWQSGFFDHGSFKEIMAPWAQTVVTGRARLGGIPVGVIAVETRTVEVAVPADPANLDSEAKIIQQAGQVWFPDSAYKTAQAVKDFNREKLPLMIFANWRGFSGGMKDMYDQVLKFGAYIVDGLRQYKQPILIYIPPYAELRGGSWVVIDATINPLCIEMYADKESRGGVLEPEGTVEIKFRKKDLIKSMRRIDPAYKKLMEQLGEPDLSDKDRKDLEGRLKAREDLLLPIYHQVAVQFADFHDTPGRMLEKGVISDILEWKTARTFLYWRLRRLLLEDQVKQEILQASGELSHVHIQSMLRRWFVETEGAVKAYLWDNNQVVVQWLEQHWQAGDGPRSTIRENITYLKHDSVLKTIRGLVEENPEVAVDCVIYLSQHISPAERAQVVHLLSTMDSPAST

`COc1ccc(F)cc1[C@H](Cn1c(=O)n([C@H]2CCCNC2=O)c(=O)c2c(C)c(-n3nccn3)sc21)OCCC(=O)O` [Compound I-177, 3-((R)-1-(5-fluoro-2-methoxyphenyl)-2-(5-methyl-2,4-dioxo-3-((S)-2-oxopiperidin-3-yl)-6-(2H-1,2,3-triazol-2-yl)-3,4-dihydrothieno[2,3-d]pyrimidin-1 (2H)-yl)ethoxy)propanoic acid] was tested. Which pIC50 (Human ACC2) did it give?
The pIC50 was 7.00 to 8.00.

What about the MIC (C. krusei ATCC 6258) of the same molecule?
The MIC was 2.1 to 4 µg/mL (≈ 3.58 to 6.82 µM).

And the pIC50 (Fungal ACC2)?
Its pIC50 is 8.00 to 8.70.

What about the MIC [1] of the same molecule?
Its MIC is 2.1 to 4 µg/mL (≈ 3.58 to 6.82 µM).

What about the MIC (C. albicans ATCC 90028) of the same molecule?
Its MIC is 2.1 to 4 µg/mL (≈ 3.58 to 6.82 µM).

How did the pIC50 (Human ACC2) turn out when `COc1ccc(F)cc1[C@H](Cn1c(=O)n([C@@H]2CCN(C)C2=O)c(=O)c2c(C)c(-n3cccn3)sc21)OCCC(=O)O` [Compound I-179, 3-((R)-1-(5-fluoro-2-methoxyphenyl)-2-(5-methyl-3-((R)-1-methyl-2-oxopyrrolidin-3-yl)-2,4-dioxo-6-(H-pyrazol-1-yl)-3,4-dihydrothieno[2,3-d]pyrimidin-1 (2H)-yl)ethoxy)propanoic acid] was run?
Its pIC50 is 7.00 to 8.00.

What about the MIC (C. krusei ATCC 6258) of the same molecule?
The MIC was 2.1 to 4 µg/mL (≈ 3.59 to 6.83 µM).

And the pIC50 (Fungal ACC2)?
The pIC50 was 8.00 to 8.70.

And the MIC [1]?
Its MIC is 2.1 to 4 µg/mL (≈ 3.59 to 6.83 µM).

And the MIC (C. albicans ATCC 90028)?
Its MIC is 2.1 to 4 µg/mL (≈ 3.59 to 6.83 µM).

With `COc1ccc(F)cc1[C@H](Cn1c(=O)n([C@H]2CCN(C)C2=O)c(=O)c2c(C)c(-n3cccn3)sc21)OCCC(=O)O` [Compound I-180, 3-((R)-1-(5-fluoro-2-methoxyphenyl)-2-(5-methyl-3-((S)-1-methyl-2-oxopyrrolidin-3-yl)-2,4-dioxo-6-(1H-pyrazol-1-yl)-3,4-dihydrothieno[2,3-d]pyrimidin-1(2H)-yl)ethoxy)propanoic acid] as the molecule, how does the pIC50 (Human ACC2) read?
Its pIC50 is 6.00 to 7.00.

And the MIC (C. krusei ATCC 6258)?
The MIC was 2.1 to 4 µg/mL (≈ 3.59 to 6.83 µM).

What about the pIC50 (Fungal ACC2) of the same molecule?
Its pIC50 is 7.00 to 8.00.

What about the MIC [1] of the same molecule?
The MIC was 2.1 to 4 µg/mL (≈ 3.59 to 6.83 µM).

What about the MIC (C. albicans ATCC 90028) of the same molecule?
The MIC was 2.1 to 4 µg/mL (≈ 3.59 to 6.83 µM).

Which results are given for `COc1ccc(F)cc1[C@H](Cn1c(=O)n([C@@H]2CCN(C)C2=O)c(=O)c2c(C)c(-n3cccn3)sc21)O[C@H]1CC[C@@H](O)CC1` [Compound I-181, 1-((R)-2-(5-fluoro-2-methoxyphenyl)-2-(((I s, 4S)-4-hydroxycyclohexyl)oxy)ethyl)-5-methyl-3-((R)-1-methyl-2-oxopyrrolidin-3-yl)-6-(1H-pyrazol-1-yl)thieno[2,3-d]pyrimidine-2,4(1H,3H)-dione]?
pIC50 (Human ACC2): 8.00 to 8.70; MIC (C. krusei ATCC 6258): 1.1 to 2 µg/mL (≈ 1.8 to 3.27 µM); pIC50 (Fungal ACC2): 8.70 to 9.15; MIC [1]: 1.1 to 2 µg/mL (≈ 1.8 to 3.27 µM); MIC (C. albicans ATCC 90028): 0.25 to 1 µg/mL (≈ 0.409 to 1.63 µM)

With `COc1ccc(F)cc1[C@H](Cn1c(=O)n([C@H]2CCN(C)C2=O)c(=O)c2c(C)c(-n3cccn3)sc21)O[C@H]1CC[C@@H](O)CC1` [Compound I-182] as the molecule, how does the pIC50 (Human ACC2) read?
The pIC50 was 7.00 to 8.00.

What about the MIC (C. krusei ATCC 6258) of the same molecule?
The MIC was 2.1 to 4 µg/mL (≈ 3.43 to 6.54 µM).

And the pIC50 (Fungal ACC2)?
The pIC50 was 8.70 to 9.15.

What about the MIC [1] of the same molecule?
The MIC was 2.1 to 4 µg/mL (≈ 3.43 to 6.54 µM).

What about the MIC (C. albicans ATCC 90028) of the same molecule?
Its MIC is 2.1 to 4 µg/mL (≈ 3.43 to 6.54 µM).

With `COc1ccc(F)cc1[C@H](Cn1c(=O)n([C@@H]2CCN(C)C2=O)c(=O)c2c(C)c(-n3nccn3)sc21)O[C@H]1C[C@@H](O)C1` [Compound I-183, 1-((R)-2-(5-fluoro-2-methoxyphenyl)-2-((1s, 3S)-3-hydroxycyclobutoxy)ethyl)-5-methyl-3-((R)-1-methyl-2-oxopyrrolidin-3-yl)-6-(2H-1,2,3-triazol-2-yl)thieno[2,3-d]pyrimidine-2,4(1H,3H)-dione] as the molecule, how does the pIC50 (Human ACC2) read?
The pIC50 was 8.00 to 8.70.

What about the MIC (C. krusei ATCC 6258) of the same molecule?
Its MIC is 0.25 to 1 µg/mL (≈ 0.428 to 1.71 µM).

And the pIC50 (Fungal ACC2)?
The pIC50 was 8.70 to 9.15.

What about the MIC [1] of the same molecule?
The MIC was 1.1 to 2 µg/mL (≈ 1.88 to 3.42 µM).

What about the MIC (C. albicans ATCC 90028) of the same molecule?
The MIC was 0.25 to 1 µg/mL (≈ 0.428 to 1.71 µM).

`COc1ccc(F)cc1[C@H](Cn1c(=O)n([C@@H]2CCNC2=O)c(=O)c2c(C)c(-n3nccn3)sc21)O[C@H]1C[C@@H](O)C1` [Compound I-184, 1-((R)-2-(5-fluoro-2-methoxyphenyl)-2-((1s, 3S)-3-hydroxycyclobutoxy)ethyl)-5-methyl-3-((R)-2-oxopyrrolidin-3-yl)-6-(2H-1-1,2,3-triazol-2-yl)thieno[2,3-d]pyrimidine-2,4(1H,3H)-dione] was tested. Which pIC50 (Human ACC2) did it give?
Its pIC50 is 8.00 to 8.70.

And the MIC (C. krusei ATCC 6258)?
The MIC was 2.1 to 4 µg/mL (≈ 3.68 to 7.01 µM).

What about the pIC50 (Fungal ACC2) of the same molecule?
Its pIC50 is 8.70 to 9.15.

What about the MIC [1] of the same molecule?
The MIC was 2.1 to 4 µg/mL (≈ 3.68 to 7.01 µM).

And the MIC (C. albicans ATCC 90028)?
Its MIC is 2.1 to 4 µg/mL (≈ 3.68 to 7.01 µM).

Which results are given for `COc1ccc(F)cc1[C@H](Cn1c(=O)n([C@@H]2CCNC2=O)c(=O)c2c(C)c(-n3nccn3)sc21)O[C@H]1C[C@H](O)C1` [Compound I-186, 1-((R)-2-(5-fluoro-2-methoxyphenyl)-2-((1r,3R)-3-hydroxycyclobutoxy)ethyl)-5-methyl-3-((R)-2-oxopyrrolidin-3-yl)-6-(2H-1,2,3-triazol-2-yl)thieno[2,3-d]pyrimidine-2,4(1H,3H)-dione]?
pIC50 (Human ACC2): 8.00 to 8.70; MIC (C. krusei ATCC 6258): 2.1 to 4 µg/mL (≈ 3.68 to 7.01 µM); pIC50 (Fungal ACC2): 8.70 to 9.15; MIC [1]: 2.1 to 4 µg/mL (≈ 3.68 to 7.01 µM); MIC (C. albicans ATCC 90028): 2.1 to 4 µg/mL (≈ 3.68 to 7.01 µM)

`COc1ccc(F)cc1[C@H](Cn1c(=O)n([C@H]2CCNC2=O)c(=O)c2c(C)c(-n3nccn3)sc21)O[C@H]1CC[C@@H](O)CC1` [Compound I-187, 1-((R)-2-(5-fluoro-2-methoxyphenyl)-2-(((1 s, 4S)-4-hydroxycyclohexyl)oxy)ethyl)-5-methyl-3-((S)-2-oxopyrrolidin-3-yl)-6-(2H-1,2,3-triazol-2-yl)thieno[2,3-d]pyrimidine-2,4(1H,3H)-dione] was tested. Which pIC50 (Human ACC2) did it give?
The pIC50 was 8.00 to 8.70.

What about the MIC (C. krusei ATCC 6258) of the same molecule?
The MIC was 2.1 to 4 µg/mL (≈ 3.51 to 6.68 µM).

What about the pIC50 (Fungal ACC2) of the same molecule?
Its pIC50 is 8.70 to 9.15.

What about the MIC [1] of the same molecule?
The MIC was 2.1 to 4 µg/mL (≈ 3.51 to 6.68 µM).

What about the MIC (C. albicans ATCC 90028) of the same molecule?
The MIC was 2.1 to 4 µg/mL (≈ 3.51 to 6.68 µM).

How did the pIC50 (Human ACC2) turn out when `COc1ccc(F)cc1[C@H](Cn1c(=O)n([C@@H]2CCNC2=O)c(=O)c2c(C)c(-n3nccn3)sc21)O[C@H]1CC[C@@H](O)CC1` [Compound I-188, 1-((R)-2-(5-fluoro-2-methoxyphenyl)-2-(((1 s, 4S)-4-hydroxycyclohexyl)oxy)ethyl)-5-methyl-3-((R)-2-oxopyrrolidin-3-yl)-6-(2H-1,2,3-triazol-2-yl)thieno[2,3-d]pyrimidine-2,4(1H3H)-dione] was run?
Its pIC50 is 8.00 to 8.70.

And the MIC (C. krusei ATCC 6258)?
The MIC was 0.25 to 1 µg/mL (≈ 0.418 to 1.67 µM).

And the pIC50 (Fungal ACC2)?
The pIC50 was 8.70 to 9.15.

What about the MIC [1] of the same molecule?
The MIC was 1.1 to 2 µg/mL (≈ 1.84 to 3.34 µM).

What about the MIC (C. albicans ATCC 90028) of the same molecule?
The MIC was 0.25 to 1 µg/mL (≈ 0.418 to 1.67 µM).

With `Cc1c(-n2nccn2)sc2c1c(=O)n([C@@H]1CCN(C)C1=O)c(=O)n2C[C@H](O[C@H]1CC[C@@H](O)CC1)c1cc(F)ccc1O` [Compound I-189, 1-((R)-2-(5-fluoro-2-hydroxyphenyl)-2-(((1s, 4S)-4-hydroxycyclohexyl)oxy)ethyl)-5-methyl-3-((R)-1-methyl-2-oxopyrrolidin-3-yl)-6-(2H-1,2,3-triazol-2-yl)thieno[2,3-d]pyrimidine-2,4(1H, 3H)-dione] as the molecule, how does the pIC50 (Human ACC2) read?
The pIC50 was 8.00 to 8.70.

What about the MIC (C. krusei ATCC 6258) of the same molecule?
The MIC was 2.1 to 4 µg/mL (≈ 3.51 to 6.68 µM).

And the pIC50 (Fungal ACC2)?
Its pIC50 is 8.70 to 9.15.

And the MIC [1]?
The MIC was 2.1 to 4 µg/mL (≈ 3.51 to 6.68 µM).

And the MIC (C. albicans ATCC 90028)?
The MIC was 2.1 to 4 µg/mL (≈ 3.51 to 6.68 µM).

How did the pIC50 (Human ACC2) turn out when `Cc1c(-n2nccn2)sc2c1c(=O)n([C@H]1CCN(C)C1=O)c(=O)n2C[C@H](O[C@H]1CC[C@@H](O)CC1)c1cc(F)ccc1O` [Compound I-190, 1-((R)-2-(5-fluoro-2-hydroxyphenyl)-2-(((1 s, 4S)-4-hydroxycyclohexyl)oxy)ethyl)-5-methyl-3-((S)-1-methyl-2-oxopyrrolidin-3-yl)-6-(2H-1,2,3-triazol-2-yl)thieno[2,3-d]pyrimidine-2,4(1H,3H)-dione] was run?
Its pIC50 is 7.00 to 8.00.

What about the MIC (C. krusei ATCC 6258) of the same molecule?
The MIC was 2.1 to 4 µg/mL (≈ 3.51 to 6.68 µM).

And the pIC50 (Fungal ACC2)?
Its pIC50 is 8.70 to 9.15.

What about the MIC [1] of the same molecule?
Its MIC is 2.1 to 4 µg/mL (≈ 3.51 to 6.68 µM).

What about the MIC (C. albicans ATCC 90028) of the same molecule?
Its MIC is 2.1 to 4 µg/mL (≈ 3.51 to 6.68 µM).
